The results in this text go back to ChEMBL document CHEMBL4825725, “Synthesis and interaction of terminal unsaturated chemical probes with Mycobacterium tuberculosis CYP124A1” (Bioorg Med Chem, 2021).

Molecules are shown by their SMILES. pKd: −log10 of the molar value. Active and inactive are the calls of the source. No cut-off for these calls is given here.

Data set [1] can be described thus: Drug metabolism assessed as Mycobacterium tuberculosis CYP124A1-mediated drug oxidation at 50 to 250 uM in presence of ferridoxin, ferridoxin-NADP+ reductase and NADPH by GC-MS analysis. The class given is ADME. Conditions: recombinant enzyme, dose 50-250 µM.
Data set [2] in a line: Binding affinity to Mycobacterium tuberculosis CYP124A1 by UV-visible spectrophotometric analysis. The settings on record: read-out: Kd(app).
Data set [3] deals with Mycobacterium tuberculosis. The experiment in a line: Inhibition of Mycobacterium tuberculosis CYP124A1 at 50 uM incubated for 10 mins in presence of ferridoxin, ferridoxin-NADP+ reductase and NADPH by HPLC analysis.

In general, pKd refers to the Kd on a negative log10 scale, so that one unit is a factor of ten.

Take `C=CCOC/C(C)=C/CC/C(C)=C/CC/C(C)=C/CO`: the Drug metabolism entry in data set [1] is “Metabolite_Notdetected”. For the same compound, in data set [2], the pKd was 5.54. In addition, in data set [3], the inhibition entry was “inactive”.

Take `C#CCOC/C(C)=C/CC/C(C)=C/CC/C(C)=C/CO`: the Drug metabolism result in data set [1] is recorded as “Metabolite_Notdetected”. Also, in data set [2], the pKd is 5.82. For the same compound, the inhibition result in data set [3] is “inactive”.

As to `CC(C)CCCC(C)CCCC(C)CCCC(C)CC(=O)O` (centres undefined), the negative-log Kd (pKd) in data set [2] was 6.66.

For `C=CCOC/C(C)=C/CC/C(C)=C/CO`, the Drug metabolism result in data set [1] was “Metabolite_Notdetected”. In data set [2], the pKd was 4.31. In data set [3], the inhibition result is “inactive”.

In the case of `C#CCOC/C(C)=C/CC/C(C)=C/CO`, the Drug metabolism entry in data set [1] is given as “Metabolite_Notdetected”. In addition, the pKd in data set [2] was 4.84. Also, the inhibition entry in data set [3] is “inactive”.

On to `CC(C)=CCC/C(C)=C/CC/C(C)=C/CO` [FARNESOL], for which the pKd in data set [2] is 5.98.
